Results reported in ChEMBL document CHEMBL1201862, “PubChem BioAssay data set” (2004).
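Grown in 96-well plates, cells were treated for 48 hours with each compound at five concentrations. Insufficient inhibition: endpoint recorded as highest concentration tested. GI50 marks 50% less growth.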 The source made the active and inactive calls. Cut-off read from the data, not from the text of the source: active = GI50 up to about 1.1 µM and inactive = higher.

Experiments:
Assay in all cases: NCI anticancer screen, dose series, 48 h
786-0 = system: 786-0
A498 = system: A498
A549 = system: A549
ACHN = system: ACHN
BT-549 = system: BT-549
CAKI-1 = system: CAKI-1
CCRF-CEM = system: CCRF-CEM
COLO 205 = system: COLO 205
DU-145 = system: DU-145
EKVX = system: EKVX
HCC 2998 = system: HCC 2998
HCT-116 = system: HCT-116
HCT-15 = system: HCT-15
HL-60 = system: HL-60
HOP-62 = system: HOP-62
HOP-92 = system: HOP-92
HT-29 = system: HT-29
Hs-578T = system: Hs-578T
IGROV-1 = system: IGROV-1
K562 = system: K562
KM12 = system: KM12
LOX IMVI = system: LOX IMVI
M14 = system: M14
MCF7 = system: MCF7
MDA-MB-231 = system: MDA-MB-231
MDA-MB-435 = system: MDA-MB-435
MDA-N = system: MDA-N
MOLT-4 = system: MOLT-4
Malme-3M = system: Malme-3M
NCI-H23 = system: NCI-H23
NCI-H460 = system: NCI-H460
NCI-H522 = system: NCI-H522
NCI/ADR-RES = system: NCI/ADR-RES
OVCAR-3 = system: OVCAR-3
OVCAR-4 = system: OVCAR-4
OVCAR-5 = system: OVCAR-5
OVCAR-8 = system: OVCAR-8
PC-3 = system: PC-3
RPMI-8226 = system: RPMI-8226
RXF 393 = system: RXF 393
SF-268 = system: SF-268
SF-295 = system: SF-295
SF-539 = system: SF-539
SK-MEL-28 = system: SK-MEL-28
SK-MEL-2 = system: SK-MEL-2
SK-OV-3 = system: SK-OV-3
SN12C = system: SN12C
SNB-19 = system: SNB-19
SW-620 = system: SW-620
T47D = system: T47D
TK-10 = system: TK-10
U-251 = system: U-251
UACC-257 = system: UACC-257
UACC-62 = system: UACC-62
UO-31 = system: UO-31
NCI-H226 = system: NCI-H226
SK-MEL-5 = system: SK-MEL-5
SNB-75 = system: SNB-75

How did the GI50 (786-0) turn out when `O=C(c1ccco1)N(C(=S)OCCOc1ccccc1)c1ccccc1` was run?
The GI50 was 19.7 µM (inactive).

And the GI50 (A498)?
The GI50 was 16 µM (inactive).

What about the GI50 (A549) of the same compound?
The GI50 was 30.8 µM (inactive).

What about the GI50 (ACHN) of the same compound?
Its GI50 is 23 µM (inactive).

What about the GI50 (BT-549) of the same compound?
The GI50 was 23 µM (inactive).

And the GI50 (CAKI-1)?
Its GI50 is 18.7 µM (inactive).

And the GI50 (CCRF-CEM)?
The GI50 was 20.1 µM (inactive).

What about the GI50 (COLO 205) of the same compound?
Its GI50 is 21 µM (inactive).

What about the GI50 (DU-145) of the same compound?
The GI50 was 20.3 µM (inactive).

And the GI50 (EKVX)?
Its GI50 is 22.1 µM (inactive).

What about the GI50 (HCC 2998) of the same compound?
Its GI50 is 21 µM (inactive).

What about the GI50 (HCT-116) of the same compound?
The GI50 was 17.3 µM (inactive).

And the GI50 (HCT-15)?
Its GI50 is 22.3 µM.

And the GI50 (HL-60)?
The GI50 was 24.3 µM (inactive).

What about the GI50 (HOP-62) of the same compound?
Its GI50 is 16.2 µM (inactive).

What about the GI50 (HOP-92) of the same compound?
The GI50 was 14.8 µM (inactive).

And the GI50 (HT-29)?
The GI50 was 19.2 µM (inactive).

And the GI50 (Hs-578T)?
Its GI50 is 32.1 µM (inactive).

What about the GI50 (IGROV-1) of the same compound?
The GI50 was 17.7 µM (inactive).

And the GI50 (K562)?
The GI50 was 28.4 µM (inactive).

And the GI50 (KM12)?
Its GI50 is 19.5 µM (inactive).

And the GI50 (LOX IMVI)?
Its GI50 is 19.3 µM (inactive).

And the GI50 (M14)?
Its GI50 is 19.5 µM (inactive).

What about the GI50 (MCF7) of the same compound?
The GI50 was 20.7 µM (inactive).

What about the GI50 (MDA-MB-231) of the same compound?
The GI50 was 16.4 µM (inactive).

And the GI50 (MDA-MB-435)?
The GI50 was 16.2 µM (inactive).

And the GI50 (MDA-N)?
Its GI50 is 18.9 µM (inactive).

And the GI50 (MOLT-4)?
Its GI50 is 23.8 µM (inactive).

What about the GI50 (Malme-3M) of the same compound?
Its GI50 is 19.9 µM (inactive).

And the GI50 (NCI-H23)?
The GI50 was 21.3 µM (inactive).

And the GI50 (NCI-H460)?
The GI50 was 21.9 µM (inactive).

What about the GI50 (NCI-H522) of the same compound?
Its GI50 is 17.1 µM (inactive).

What about the GI50 (NCI/ADR-RES) of the same compound?
The GI50 was 25.7 µM (inactive).

What about the GI50 (OVCAR-3) of the same compound?
Its GI50 is 16.5 µM (inactive).

And the GI50 (OVCAR-4)?
Its GI50 is 20 µM (inactive).

What about the GI50 (OVCAR-5) of the same compound?
The GI50 was 19.2 µM (inactive).

And the GI50 (OVCAR-8)?
Its GI50 is 19.8 µM (inactive).

And the GI50 (PC-3)?
The GI50 was 24.1 µM (inactive).

What about the GI50 (RPMI-8226) of the same compound?
The GI50 was 19.8 µM (inactive).

What about the GI50 (RXF 393) of the same compound?
The GI50 was 13.8 µM (inactive).

And the GI50 (SF-268)?
The GI50 was 18 µM (inactive).

What about the GI50 (SF-295) of the same compound?
The GI50 was 16.2 µM (inactive).

What about the GI50 (SF-539) of the same compound?
The GI50 was 22.9 µM (inactive).

What about the GI50 (SK-MEL-28) of the same compound?
Its GI50 is 18.2 µM (inactive).

And the GI50 (SK-MEL-2)?
The GI50 was 19.6 µM (inactive).

What about the GI50 (SK-OV-3) of the same compound?
Its GI50 is 21.8 µM (inactive).

And the GI50 (SN12C)?
Its GI50 is 19.5 µM (inactive).

What about the GI50 (SNB-19) of the same compound?
The GI50 was 26.7 µM (inactive).

And the GI50 (SW-620)?
The GI50 was 20.5 µM (inactive).

What about the GI50 (T47D) of the same compound?
The GI50 was 20.5 µM (inactive).

And the GI50 (TK-10)?
Its GI50 is 20.9 µM (inactive).

What about the GI50 (U-251) of the same compound?
The GI50 was 16.5 µM (inactive).

What about the GI50 (UACC-257) of the same compound?
The GI50 was 17.9 µM (inactive).

And the GI50 (UACC-62)?
Its GI50 is 16.6 µM (inactive).

And the GI50 (UO-31)?
The GI50 was 15.7 µM (inactive).

Which results are given for `NNC(=O)c1ccccc1Nc1ccccc1C(=O)NN`?
GI50 (786-0): > 100 µM (inactive); GI50 (A549): > 100 µM (inactive); GI50 (ACHN): > 100 µM (inactive); GI50 (BT-549): > 100 µM (inactive); GI50 (CAKI-1): > 100 µM (inactive); GI50 (CCRF-CEM): > 100 µM (inactive); GI50 (COLO 205): > 100 µM (inactive); GI50 (DU-145): > 100 µM (inactive); GI50 (EKVX): > 100 µM (inactive); GI50 (HCC 2998): > 100 µM (inactive); GI50 (HCT-116): > 100 µM (inactive); GI50 (HCT-15): > 100 µM; GI50 (HL-60): > 100 µM (inactive); GI50 (HOP-62): > 100 µM (inactive); GI50 (HT-29): > 100 µM (inactive); GI50 (Hs-578T): 92.9 µM (inactive); GI50 (IGROV-1): > 100 µM (inactive); GI50 (K562): > 100 µM (inactive); GI50 (KM12): > 100 µM (inactive); GI50 (LOX IMVI): > 100 µM (inactive); GI50 (M14): > 100 µM (inactive); GI50 (MCF7): > 100 µM (inactive); GI50 (MDA-MB-231): > 100 µM (inactive); GI50 (MDA-MB-435): > 100 µM (inactive); GI50 (MDA-N): > 100 µM (inactive); GI50 (MOLT-4): > 100 µM (inactive); GI50 (Malme-3M): > 100 µM (inactive); GI50 (NCI-H226): > 100 µM (inactive); GI50 (NCI-H23): > 100 µM (inactive); GI50 (NCI-H460): > 100 µM (inactive); GI50 (NCI-H522): > 100 µM (inactive); GI50 (NCI/ADR-RES): > 100 µM (inactive); GI50 (OVCAR-3): > 100 µM (inactive); GI50 (OVCAR-4): > 100 µM (inactive); GI50 (OVCAR-5): > 100 µM (inactive); GI50 (OVCAR-8): > 100 µM (inactive); GI50 (PC-3): > 100 µM (inactive); GI50 (RPMI-8226): > 100 µM (inactive); GI50 (RXF 393): > 100 µM (inactive); GI50 (SF-268): > 100 µM (inactive); GI50 (SF-295): > 100 µM (inactive); GI50 (SF-539): > 100 µM (inactive); GI50 (SK-MEL-28): > 100 µM (inactive); GI50 (SK-MEL-2): > 100 µM (inactive); GI50 (SK-MEL-5): > 100 µM (inactive); GI50 (SK-OV-3): > 100 µM (inactive); GI50 (SN12C): > 100 µM (inactive); GI50 (SNB-19): > 100 µM (inactive); GI50 (SNB-75): > 100 µM (inactive); GI50 (SW-620): > 100 µM (inactive); GI50 (T47D): > 100 µM (inactive); GI50 (TK-10): > 100 µM (inactive); GI50 (U-251): > 100 µM (inactive); GI50 (UACC-257): > 100 µM (inactive); GI50 (UACC-62): > 100 µM (inactive); GI50 (UO-31): > 100 µM (inactive)
